Source: PubChem BioAssay AID588480 (Broad Institute, 2011)
“And” between values parts separate entries of the source, which are not always exact repeats. Equal entries are not always repeated. Inconclusive results are not listed. The source made the active and inactive calls.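 Rule for the calls: active = compounds whose fitted half-maximal concentration stays within ten times the top tested dose in every test run; inconclusive = runs disagree, or a flat partial drop or poor fit; inactive = every run inactive, including flat curves and signal rises.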

Biological target: Serine/threonine-protein kinase 33 (Homo sapiens) (UniProt Q9BYT3)
Sequence (Q9BYT3 whole entry, looked up): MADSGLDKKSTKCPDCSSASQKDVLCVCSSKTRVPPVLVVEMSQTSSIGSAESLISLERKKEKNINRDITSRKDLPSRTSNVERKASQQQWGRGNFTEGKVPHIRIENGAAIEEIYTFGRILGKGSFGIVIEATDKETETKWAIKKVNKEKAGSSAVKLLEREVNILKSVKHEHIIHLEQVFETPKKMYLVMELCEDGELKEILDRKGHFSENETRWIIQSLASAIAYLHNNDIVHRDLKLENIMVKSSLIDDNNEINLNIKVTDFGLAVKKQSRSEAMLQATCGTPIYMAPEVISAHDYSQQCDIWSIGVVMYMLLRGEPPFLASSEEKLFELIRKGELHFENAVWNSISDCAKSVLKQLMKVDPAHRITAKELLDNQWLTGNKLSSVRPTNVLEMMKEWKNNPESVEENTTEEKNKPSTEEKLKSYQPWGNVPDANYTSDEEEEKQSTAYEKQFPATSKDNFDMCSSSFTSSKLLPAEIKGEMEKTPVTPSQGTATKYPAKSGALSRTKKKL
Test: inhibition of purified STK33 phosphorylating MBP – biochemical, ADP-Glo luminescence, dry powder, set 2, dose response (AID 588480)
Conditions: purified STK33, MBP phosphorylation

SMILES	AC50
O=C(Nc1ccccc1-c1nc2ccccc2[nH]c1=O)c1ccc(F)cc1	152 nM
COc1ccc(C(=O)Nc2ccccc2-c2nc3ccccc3[nH]c2=O)cc1	977 nM
O=C(Nc1ccccc1-c1nc2ccccc2[nH]c1=O)c1cccc(F)c1	2430 nM
O=C(Nc1ccccc1-c1nc2ccccc2[nH]c1=O)c1cccnc1	582 nM
O=C(Nc1ccccc1-c1nc2ccccc2[nH]c1=O)c1ccncc1	7690 nM
O=C(Nc1ccccc1-c1nc2ccccc2[nH]c1=O)c1cccc(Cl)c1	709 nM
O=C(Nc1ccccc1-c1nc2ccccc2[nH]c1=O)c1cc2ccccc2s1	8510 nM
O=C(Nc1ccccc1-c1nc2ccccc2[nH]c1=O)c1cccs1	285 nM and 308 nM
O=C(Nc1ccccc1-c1nc2ccccc2[nH]c1=O)c1ccccn1	76 nM
COc1cc(/C=C2\SC(N)=NC2=O)ccc1O	466 nM

More lines, now with the values ahead:

AC50	SMILES
9910 nM	COc1cc(/C=C2\SC(=Nc3ccccc3OC)NC2=O)ccc1F
5410 nM	COc1ccccc1N=C1NC(=O)/C(=C/c2ccc3c(c2)OCO3)S1
2250 nM	COc1ccc(/C=C2\SC(=Nc3ccccc3OC)NC2=O)cc1
1280 nM	COc1ccccc1N=C1NC(=O)/C(=C/c2ccc3c(c2)OCCO3)S1
250 nM and 321 nM	COc1cc(/C=C2\SC(=Nc3ccccc3OC)NC2=O)ccc1O
911 nM	COc1ccccc1N=C1NC(=O)/C(=C/c2ccc(O)cc2)S1
245 nM	O=C1NC(=NCc2ccccc2)S/C1=C/c1ccc(O)cc1

Same assay, conditions: purified STK33, MBP phosphorylation, at 10 µM (top of the series)

SMILES	activity change, negative = inhibition
O=c1[nH]c2ccccc2nc1-c1ccccc1NCc1cccs1	inactive
O=C(Nc1ccccc1-c1nc2ccccc2[nH]c1=O)C1CCCCC1	inactive
Nc1ccccc1-c1nc2ccccc2[nH]c1=O	inactive
COc1ccccc1Nc1nc(O)c(/C=C2/C=c3ccccc3=N2)s1	inactive

Second part, the molecule after the results:

activity change, negative = inhibition	SMILES
inactive	COc1ccccc1N=C1NC(=O)/C(=C/c2ccccn2)S1
inactive	COc1ccccc1N=C1NC(=O)/C(=C/c2cccc(Cl)c2)S1
inactive	COc1ccccc1N=C1NC(=O)/C(=C/c2cccc(F)c2)S1
inactive	COc1ccccc1/C=C1\SC(=Nc2ccccc2OC)NC1=O
inactive	COc1ccccc1N=C1NC(=O)CS1
inactive	COc1ccccc1N=C1NC(=O)/C(=C/C2CCCCC2)S1
inactive	COc1ccccc1N=C1NC(=O)/C(=C/c2cc(C)on2)S1
inactive	COc1ccccc1N=C1NC(=O)/C(=C/C(C)C)S1
inactive	COc1ccccc1N=C1NC(=O)/C(=C/c2cccn2C)S1
inactive	COc1ccccc1N=C1NC(=O)/C(=C/c2ccc(OC(F)(F)F)cc2)S1
